# Measurements taken from US20250082648A1, “COMPOSITIONS AND METHODS FOR ENHANCING KRAS INHIBITOR OR SHP2 INHIBITOR EFFICACY” (New York University, priority 2023, published 2025).
# Test system: H2122 cells
# Assay: CRISPR/Cas9 synthetic lethal screen with TNO155 alone
# Type: cell-based, human
# Conditions: for neg|lfc: H2122 cells; for neg|score: H2122
smiles,measurement,setting,value
C[C@@H]1OCC2(CCN(c3cnc(Sc4ccnc(N)c4Cl)c(N)n3)CC2)[C@@H]1N [TNO155],neg|lfc,AATF knockout,−0.9199
same,neg|lfc,ABT1 knockout,−1.0094
same,neg|lfc,ADAT3 knockout,−1.2793
same,neg|score,ADSL knockout,0.0007395
same,neg|lfc,ADSS knockout,−1.8117
same,neg|score,ANAPC2 knockout,0.0008681
same,neg|lfc,ARIH1 knockout,−1.1405
same,neg|score,ASF1A knockout,0.0009774
same,neg|score,ASH2L knockout,0.000721
same,neg|lfc,ATP5B knockout,−1.2287
same,neg|lfc,ATP6V0B knockout,−1.1768
same,neg|score,ATP6V1D knockout,0.0008813
same,neg|score,ATP6V1E1 knockout,0.0009389
same,neg|lfc,ATRX knockout,−1.7393
same,neg|lfc,AURKA knockout,−1.3711
same,neg|lfc,BCAS2 knockout,−0.7436
same,neg|score,BCCIP knockout,0.0009424
same,neg|score,C7orf26 knockout,0.0008313
same,neg|score,C12orf45 knockout,0.0008272
same,neg|score,C16orf59 knockout,0.0007587
same,neg|score,C16orf80 knockout,0.000879
same,neg|score,C17orf70 knockout,0.0008636
same,neg|lfc,CCDC115 knockout,−1.2834
same,neg|score,CCDC174 knockout,0.0007499
same,neg|lfc,CEBPZ knockout,−1.2677
same,neg|score,CENPL knockout,0.000924
same,neg|lfc,CHMP6 knockout,−1.2891
same,neg|score,CLP1 knockout,0.000693
same,neg|lfc,CNOT7 knockout,−0.9274
same,neg|score,COPS4 knockout,0.0009634
same,neg|lfc,COPS5 knockout,−1.8379
same,neg|lfc,COPS8 knockout,−0.9744
same,neg|score,COX10 knockout,0.0009358
same,neg|lfc,COX11 knockout,−0.6679
same,neg|lfc,CSNK2B knockout,−1.5191
same,neg|score,CTNNBL1 knockout,0.0007324
same,neg|score,DCTN1 knockout,0.0008908
same,neg|lfc,DCTN5 knockout,−1.6239
same,neg|lfc,DCTN6 knockout,−1.5775
same,neg|lfc,DDOST knockout,−0.981
same,neg|lfc,DDX52 knockout,−1.1513
same,neg|score,DDX54 knockout,0.0009466
same,neg|score,DGCR8 knockout,0.0008832
same,neg|lfc,DPH5 knockout,−1.0575
same,neg|lfc,DPY30 knockout,−0.7867
same,neg|score,DR1 knockout,0.0008727
same,neg|lfc,DUT knockout,−0.9153
same,neg|lfc,DYNC1I2 knockout,−2.041
same,neg|score,EIF2B1 knockout,0.0008906
same,neg|lfc,EIF2B5 knockout,−1.2117
same,neg|score,EXOC5 knockout,0.0008724
same,neg|lfc,EXOSC8 knockout,−1.0794
same,neg|lfc,FASTKD5 knockout,−0.9103
same,neg|score,FBL knockout,0.0009079
same,neg|score,FBXL5 knockout,0.0009454
same,neg|score,FDX1L knockout,0.0007487
same,neg|lfc,FOXRED1 knockout,−0.9267
same,neg|lfc,FSCN1 knockout,−0.9432
same,neg|lfc,FTSJ3 knockout,−1.5605
same,neg|score,FXN knockout,0.000775
same,neg|lfc,FZD9 knockout,−1.077
same,neg|score,GARS knockout,0.0008542
same,neg|lfc,GEMIN4 knockout,−1.3849
same,neg|score,GINS1 knockout,0.0009186
same,neg|lfc,GSG2 knockout,−1.139
same,neg|lfc,GTF2F2 knockout,−0.9729
same,neg|lfc,GTF3C1 knockout,−1.0865
same,neg|score,GTPBP4 knockout,0.0008361
same,neg|lfc,HEATR2 knockout,−0.6955
same,neg|lfc,HGS knockout,−0.9397
same,neg|lfc,HNF1B knockout,−0.822
same,neg|lfc,HSPA8 knockout,−2.0457
same,neg|score,HSPA14 knockout,0.0009105
same,neg|lfc,IDI1 knockout,−0.7039
same,neg|score,ILF3 knockout,0.0008338
same,neg|lfc,IMP4 knockout,−1.8118
same,neg|score,IPO13 knockout,0.0008689
same,neg|score,IQGAP3 knockout,0.0008176
same,neg|score,JMJD6 knockout,0.0007183
same,neg|lfc,KANSL3 knockout,−1.734
same,neg|score,KBTBD2 knockout,0.0008277
same,neg|score,KDM2A knockout,0.0008953
same,neg|lfc,KIF18A knockout,−1.181
same,neg|score,KRAS knockout,0.0008327
same,neg|lfc,KRR1 knockout,−1.4982
same,neg|score,LSM3 knockout,0.0008487
same,neg|score,LSM5 knockout,0.0007041
same,neg|lfc,LSM12 knockout,−0.7213
same,neg|score,MBTPS1 knockout,0.0007681
same,neg|score,MCAT knockout,0.0009141
same,neg|score,MCM4 knockout,0.000877
same,neg|lfc,MED11 knockout,−1.4228
same,neg|score,MOGAT3 knockout,0.000754
same,neg|score,MRPL11 knockout,0.0007518
same,neg|lfc,MRPL38 knockout,−1.0939
same,neg|lfc,MRPL50 knockout,−1.0478
same,neg|score,MRPS2 knockout,0.0007231
same,neg|score,MRRF knockout,0.0008379
same,neg|score,MTERFD2 knockout,0.0008506
same,neg|score,MTHFD1 knockout,0.0007217
same,neg|score,MYBBP1A knockout,0.0009866
same,neg|lfc,MYBL2 knockout,−0.6253
same,neg|score,NAA10 knockout,0.0008935
same,neg|score,NASP knockout,0.0009277
same,neg|score,NCAPD2 knockout,0.0009387
same,neg|score,NDUFB9 knockout,0.0007395
same,neg|score,NDUFB10 knockout,0.0009074
same,neg|score,NDUFS1 knockout,0.0007194
same,neg|lfc,NDUFS5 knockout,−0.8577
same,neg|lfc,NEDD8 knockout,−2.4196
same,neg|lfc,NIP7 knockout,−0.8825
same,neg|lfc,NLE1 knockout,−1.8629
same,neg|lfc,NME6 knockout,−1.1709
same,neg|lfc,NOL6 knockout,−1.0733
same,neg|score,NOL8 knockout,0.000711
same,neg|lfc,NPLOC4 knockout,−1.2039
same,neg|score,NRF1 knockout,0.0008548
same,neg|lfc,NSMCE2 knockout,−1.577
same,neg|lfc,NUBP1 knockout,−1.2742
same,neg|lfc,OGT knockout,−1.3076
same,neg|score,OR3A2 knockout,0.0009552
same,neg|lfc,PDHA1 knockout,−0.7499
same,neg|lfc,PGGT1B knockout,−0.821
same,neg|lfc,PI4KA knockout,−1.1904
same,neg|score,PNN knockout,0.0007486
same,neg|score,POLD2 knockout,0.0007896
same,neg|score,POLR3A knockout,0.0008536
same,neg|score,PPIL4 knockout,0.000952
same,neg|lfc,PRKRIR knockout,−1.3008
same,neg|score,PRPF19 knockout,0.0007312
same,neg|score,PRPF38B knockout,0.0009555
same,neg|lfc,PSMA6 knockout,−1.9056
